Key:
AR-specific mRNA = assay: AR mRNA silencing in PASC1 cells, qRT-PCR; type: cell-based, rat; conditions: 48 h siRNA
Description: (§1) Primers were designed with http://www.ncbi.nlm.nih.gov/tools/primer-blast (Accessed on 28 February 2022) and were all intron-spanning. Total RNA was isolated from PASC1 with the RNeasy Mini-Kit (Qiagen, Hilden, Germany) and subjected to DNase I treatment as described by the manufacturer. The Reverse Transcription-System first strand cDNA synthesis kit (Invitrogen, Darmstadt, Germany) was used for cDNA synthesis, as recommended. Quantitative real-time PCR (qRT-PCR) amplification was performed in duplicate with iQ TM SYBR Green Super-mix (Bio-Rad; Munich; Germany) on the iCycler iQ System (Bio-Rad). After an initial heating at 94 °C for 5 min, 40 amplification cycles were performed consisting of an initial denaturation of the DNA double strands at 94 °C for 14 s, an annealing phase of the primers at 59 °C for 30 s, and extension of the primers for 15 s at 72 °C. A finalizing extension at 72 °C was carried out for 10 min. Gene expression was measured after reaching the ct value and calculated using the Delta–Delta Ct method. Detection of GAPDH-specific mRNA/cDNA served as normalization of the quantification. Oligonucleotides used in the qRT-PCR, their annealing position, and the expected size of the amplificates are listed in Supplementary Table S2. […]

AR protein = AR protein silencing in PASC1 cells, immunofluorescence; type: cell-based, rat; conditions: 48 h siRNA
Description: PASC1 cells were plated at a density of 3.0 × 10^4 on 24-well plates (1 mL/well) and incubated 48 h at 37 °C and 5% CO2 until a confluence of roughly 80% was reached. Cells were rinsed with DPBS and fixed with 100% ice-cold methanol (Roth, Karlsruhe, Germany) on ice for 10 min directly or after stimulation with vehicle, 10 nM testosterone, or 1 µM P1 for 24 h. Cells were then washed with DPBS three times for 5 min, and then incubated in blocking solution (PBS with 3% BSA and 0.3% Triton X-100, both from Sigma-Aldrich) for 1 h at room temperature. The blocking solution was replaced by fresh blocking solution containing the primary antibodies for detection of either AR, p-Erk1/2, p-CREB/p-ATF-1, claudin-1 (Cldn-1), or zonula occludens-1 (ZO-1) (Supplementary Table S1) and incubated overnight at 4 °C. […] After washing 3 times with DPBS, images were obtained using an inverse Olympus IX81 microscope equipped with a fluorescence system. A total of 30 cells from 3 independent experiments (30 × 3) localized closest to the diagonals of the square optical field were selected and the manually surrounded green fluorescence was quantified by ImageJ (available at http://rsbweb.nih.gov/ij/, last accessed 28 February 2022) following the protocol of the software provider. The data obtained were analyzed by GraphPad Prism5 (GraphPad Software, Inc., La Jolla, CA, USA). […]

[1] = tested on: androgen binding site of ZIP9; assay: T-BSA-FITC plasma membrane labeling of PASC1 cells and its displacement; conditions: PASC1 cells, n = 28
Description: PASC1 cells were cultured as described above in 24-well plates at a density of 3 × 10^3 cells/well until reaching a confluence of approximately 80%. The cells were then treated with either 10 nM testosterone or 1 µM of P1 for 1 h. Controls received only the testosterone vehicle (ethanol). […] The medium was then removed by aspiration. In order to label nuclei, cells were fixed at room temperature with 3.7% formaldehyde that contained 20 ng of 4,6-diamino-2-phenylindole (DAPI). After 15 min, the formaldehyde/DAPI solution was removed by aspiration. Cells were washed with Dulbecco’s phosphate-buffered saline (DPBS, Gibco, Schwerte, Germany) and then overlayed with 400 µL PBS before imaging. Images were taken by an inverse Olympus IX81 microscope (Olympus, Hamburg, Germany).

ZIP9-specific mRNA = assay: ZIP9 mRNA silencing in PASC1 cells, qRT-PCR; type: cell-based, rat; conditions: 48 h siRNA
Description: as §1

ZIP9 protein = ZIP9 protein silencing in PASC1 cells, immunofluorescence; type: cell-based, rat; conditions: 48 h siRNA
[2] = tested on: androgen binding site ZIP9 of the Sertoli cell line 93RS2; set-up: method as in PMID 35053053, PMID 35053017; conditions: 93RS2 cells; cited from earlier work
[3] = tested on: androgen binding site ZIP9 of L6 myoblasts; conditions: cited from earlier work

With “AR-siRNA: 5′CCGGAAAUGUUAUGAAGCAtt3′ plus 5′ UGCUUCAUAACAUUUCCGGag 3′ (AR-siRNA for AR silencing) (chain 1 CCGGAAAUGUUAUGAAGCATT; chain 2 UGCUUCAUAACAUUUCCGGAG; Commercial Silencer Select siRNA, lowercase 3' overhang letters not explained, further chemistry not given here)” the “Expression of AR-specific mRNA” value (AR-specific mRNA) was “greatly suppressed” and the “Expression of AR protein” value (AR protein) was “also prevented”.

With “BSA-FITC: BSA-FITC (lacking testosterone)” the “Membrane labeling by BSA-FITC (non-specific binding)” value ([1]; 10 µM BSA-FITC, pH 7.2, 20 min, room temperature) was “failed to label the membrane structure”.

In the case of “ZIP9-directed siRNA: 5′ GGAUUAAGUAAGAGCAGUAtt3′ and 5′ UACUGCUCUUACUUAAUCCta 3′ (ZIP9-siRNA for ZIP9 silencing) (chain 1 GGAUUAAGUAAGAGCAGUATT; chain 2 UACUGCUCUUACUUAAUCCTA; Commercial Silencer Select siRNA, lowercase 3' overhang letters not explained, further chemistry not given here)”, the “Expression of ZIP9 mRNA” value (ZIP9-specific mRNA) is reported as “similarly successful in preventing expression” and the “Expression of ZIP9 protein” value (ZIP9 protein) is reported as “similarly successful in preventing expression”.

In the case of “testosterone 3-(O-carboxymethyl)-oxime:bovine serum albumin-fluorescein isothiocyanate conjugate [T-BSA-FITC]”, the “Labeling of androgen binding site of ZIP9” value [2] is given as “suitable to label the androgen binding site ZIP9 of the Sertoli cell line 93RS2”, the “Labeling of androgen binding site of ZIP9” value [3] is given as “suitable to label the androgen binding site ZIP9 of the Sertoli cell line 93RS2 and also of L6 myoblasts” and the Membrane labeling ([1]; 10 µM T-BSA-FITC, pH 7.2, 20 min, room temperature, nc-siRNA treated, fluorescence) is given as “label the surface of PASC1 cells”. For the same substance, the “Membrane labeling after ZIP9 knockdown” value ([1]; ZIP9 expression suppressed by siRNA, 10 µM T-BSA-FITC) was “suppression of its expression by siRNA prevented the binding of T-BSA-FITC”.

Reference: PMC9138102, “The Role of ZIP9 and Androgen Receptor in the Establishment of Tight Junctions between Adult Rat Sertoli Cells” (Biology, 2022)
